The values below are quoted from earlier work in patent US20090285877A1, “Percutaneous absorption preparation containing palonosetron” (HISAMITSU PHARMACEUTICAL CO., INC.,, priority 2008, published 2009).

The series concerns the target T1, 5-HT3 receptor (Homo sapiens, UniProt P46098).
T1 sequence (P46098 24-478): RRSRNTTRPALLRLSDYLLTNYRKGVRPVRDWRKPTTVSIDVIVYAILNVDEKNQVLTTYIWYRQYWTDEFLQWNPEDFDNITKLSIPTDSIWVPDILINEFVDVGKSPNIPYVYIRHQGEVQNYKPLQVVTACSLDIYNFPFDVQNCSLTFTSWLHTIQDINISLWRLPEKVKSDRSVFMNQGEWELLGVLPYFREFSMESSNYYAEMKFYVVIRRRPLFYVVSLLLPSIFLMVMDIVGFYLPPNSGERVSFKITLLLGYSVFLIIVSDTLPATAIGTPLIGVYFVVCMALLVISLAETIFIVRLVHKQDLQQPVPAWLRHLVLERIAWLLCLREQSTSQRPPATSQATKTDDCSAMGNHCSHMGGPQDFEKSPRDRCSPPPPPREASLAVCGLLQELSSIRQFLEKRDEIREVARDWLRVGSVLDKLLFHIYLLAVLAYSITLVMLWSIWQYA

With `Cl.O=C1c2cccc3c2[C@H](CCC3)CN1[C@@H]1CN2CCC1CC2` [Palonosetron hydrochloride, (3aS)-2-[(S)-1-azabicyclo[2.2.2]oct-3-yl]-2,3,3a,4,5,6-hexahydro-1-oxo-1H-1Hbenz[de]isoquinoline hydrochloride], the “binding affinity for 5-HT3 receptor” value is recorded as “high binding affinity”.
